Test results from US20080318993A1 (Endo Pharmaceuticals, Inc., priority 2007, published 2008).
“And” between values parts separate entries of the source, which are not always exact repeats. Identical values can stand only once. Like-named read-outs stand apart in the source and are kept apart here.

Columns and labels:
[1] = Example 5: plasma pharmacokinetics of EN3202 20 mg in hepatic impairment vs healthy controls; details: for AUC / AUC(0-t) / Cmax / Tmax / half-life: human, plasma, oral, 20 mg; for AUC(0-t): AUCT; for Tmax: median (range); for increase in average AUC relative to controls: arithmetic means; for AUC increase relative to healthy controls / Cmax increase relative to healthy controls: log-transformed comparison
Protocol: (§1) While in the clinic, the subjects were to refrain from strenuous physical activity.
All study medications were supplied by the sponsor. […] A single 20 mg dose EN3202 was administered following an overnight fast (from approximately 22:00 on the evening prior to dose administration) at approximately 08:00, and participants were not allowed to eat until at least four hours after the dose.
All doses were administered with 240 mL of ambient water. Participants were instructed to drink all of the water.
Pharmacokinetic parameters were calculated using model-independent methods.
All pharmacokinetic results are summarized using appropriate descriptive statistics. […] One-way ANOVA was conducted using the model PKVAR=group, where group was mild hepatic impairment, moderate-severe hepatic impairment, or healthy control. Point estimates of the impaired versus control group differences and the corresponding 90% confidence limits were constructed.

[2] = Example 5: urinary excretion of oxymorphone and metabolites in hepatic impairment vs healthy controls; details: for mean amount excreted in the urine: percent of administered dose, through 120 hours
Description: as §1

[3] = 10 mg oral dose, cited from earlier work
[4] = orally administered (oral solution), hydrochloride, cited from earlier work
[5] = Moderate-Severe Impairment, mean (SD)
[6] = Subject 006 (Child-Pugh Class B)
[7] = Subject 007 (Child-Pugh Class A)
[8] = Subject 009 (Child-Pugh Class B)
[9] = Subject 010 (Child-Pugh Class B)
[10] = Subject 011 (Child-Pugh Class C)
[11] = moderate-severe hepatic impairment

CN1CC[C@]23c4c5ccc(O)c4O[C@H]2C(=O)CC[C@@]3(O)[C@H]1C5.Cl [Oxymorphone, 14-hydroxydihydromorphinone hydrochloride]
λz ([1]; Healthy Controls, mean (SD)): 0.0970 (0.0540) hr^−1 | CL/F ([1]; Healthy Controls, mean (SD), hydrochloride): 21.15 (13.54) L/min | CL/F ([1]; Healthy Controls, mean (SD), listed as oxymorphone, hydrochloride): 21.15 L/min | CL/F ([1]; Mild Impairment, mean (SD)): 13.30 (5.81) L/min | λz ([1]; Mild Impairment, mean (SD)): 0.0830 (0.0392) hr^−1 | CL/F [1, 5]: 7.17 (5.08) L/min | λz [1, 5]: 0.0970 (0.0365) hr^−1 | CL/F [1, 6]: 7.34 L/min | CL/F [1, 7]: 4.45 L/min | CL/F [1, 8]: 1.38 L/min | CL/F [1, 9]: 7.63 L/min | CL/F [1, 10]: 1.33 L/min | AUC ([1]; AUC, Healthy Controls, mean (SD), single 20 mg EN3202, fasting): 20.6 ng·h/mL | AUC ([1]; AUC, Mild Impairment, mean (SD), single 20 mg EN3202, fasting): 32.1 ng·h/mL | AUC ([1]; AUC, Moderate-Severe Impairment, mean (SD), single 20 mg EN3202, fasting): 106 ng·h/mL | AUC ([1]; AUC, Subject 006 (Child-Pugh Class B)): 45.4 ng·h/mL | AUC ([1]; AUC, Subject 007 (Child-Pugh Class A)): 74.8 ng·h/mL | AUC ([1]; AUC, Subject 009 (Child-Pugh Class B)): 241 ng·h/mL | AUC ([1]; AUC, Subject 010 (Child-Pugh Class B)): 43.7 ng·h/mL | AUC ([1]; AUC, Subject 011 (Child-Pugh Class C)): 250 ng·h/mL | AUC(0-t) ([1]; Healthy Controls, mean (SD)): 18 ng·h/mL | AUC(0-t) ([1]; Mild Impairment, mean (SD)): 30 ng·h/mL | AUC(0-t) [1, 5]: 104 ng·h/mL | Cmax ([1]; Healthy Controls, mean (SD)): 1.73 ng/mL | Cmax ([1]; Mild Impairment, mean (SD)): 3.98 ng/mL | Cmax [1, 5]: 9.16 ng/mL | Cmax [1, 6]: 4.31 ng/mL | Cmax [1, 7]: 11.4 ng/mL | Cmax [1, 8]: 19.6 ng/mL | Cmax [1, 9]: 3.72 ng/mL | Cmax [1, 10]: 23.6 ng/mL | Cmax ([1]; range among subjects, control group): 0.64 to 2.83 ng/mL | Cmax ([1]; range among subjects, mild impairment): 0.86 to 11.4 ng/mL | Cmax ([1]; range among subjects, moderate-severe impairment): 1.66 to 23.6 ng/mL | AUC ([1]; Individual AUC results, range, healthy controls): 6.18 to 33.9 ng·h/mL | AUC ([1]; Individual AUC results, range, subjects with mild impairment): 15.3 to 74.8 ng·h/mL | AUC ([1]; Individual AUC results, range, subjects with moderate-severe impairment): 24.9 to 250 ng·h/mL | Tmax ([1]; Healthy Controls): 3.5 h | Tmax ([1]; Mild Impairment): 1.75 h | Tmax ([1]; Moderate-Severe Impairment): 1.5 h | half-life ([1]; T½, Healthy Controls, mean (SD)): 9.98 h | half-life ([1]; T½, Mild Impairment, mean (SD)): 11.8 h | half-life ([1]; T½, Moderate-Severe Impairment, mean (SD)): 8.04 h | AUC ([1]; mean AUC after excluding Subject 007, mild group): 23.6 ng·h/mL | AUC ([1]; median AUC, control group): 23.8 ng·h/mL | AUC ([1]; median AUC, mildly-impaired group): 24.7 ng·h/mL | half-life ([1]; plasma elimination half-life, Subject 009): 6.96 h | half-life ([1]; plasma elimination half-life, Subject 011): 10.7 h | increase in average AUC relative to controls ([1]; mild hepatic impairment): approximately 1.56 fold | AUC increase relative to healthy controls ([1]; mild hepatic impairment): 1.52 fold | elimination rate constant ratio, 90% confidence limits ([1]; mild impairment): 0.58-1.31 | elimination rate constant, ratio to healthy controls ([1]; mild impairment): 0.87 | Cmax increase relative to healthy controls ([1]; mild impairment): 1.68 fold | elimination rate constant ratio, 90% confidence limits ([1]; moderate-severe impairment): 0.74-1.66 | elimination rate constant, ratio to healthy controls ([1]; moderate-severe impairment): 1.11 | increase in average AUC relative to controls ([1]; moderate-severe impairment): 5.13 fold | Cmax increase relative to healthy controls ([1]; moderate-severe impairment): 3.41 fold | AUC increase relative to healthy controls ([1]; moderate-to-severe hepatic impairment, hydrochloride): 3.61 fold and 3,6 fold | AUC increase in individual subjects ([1]; two of six subjects with moderate or severe liver disease): up to 10 fold | urinary excretion essentially complete by ([2]; after single 20 mg dose): by the end of the 48 to 72 hour collection interval | mean amount excreted in the urine ([2]; control group): 0.5% | administered dose excreted unchanged in the urine ([2]; discussion statement): Less than 1% | mean amount excreted in the urine ([2]; mild hepatic impairment): 1.2% | increase in the amount excreted in the urine [2, 11]: approximately 8 fold | mean amount excreted in the urine [2, 11]: 4.1% | recovery in the first 24 hours, of the amount recovered [3]: 82% | recovery in the first 24 hours, of the dose [3]: ~42% | unchanged oxymorphone recovered in the urine [3]: 1.9% | administered dose recovered in the urine ([3]; 120-hour collection interval, 10 healthy subjects, average): 49% | Conjugated oxymorphone, average of the administered dose ([3]; urine): 44.1% | oral / average absolute bioavailability [4]: about 10% | oral / average absolute bioavailability ([4]; listed as oxymorphone): approximately 10%
